Data taken from publication PMC12203311, “Design, synthesis, in silico and in vitro evaluation of pyrrole–indole hybrids as dual tubulin and aromatase inhibitors with potent anticancer activities” (RSC Advances, 2025).

Legend:
Human CYP19 (aromatase) = target: T1, Human CYP19 (aromatase) (Homo sapiens, UniProt P11511); experiment: Aromatase inhibition assay (DBF fluorometric substrate); assay type: biochemical; conditions: active defined as IC50 < 12.5 µM
T1 construct: purchased GENTEST, Woburn, MA 456260; host or cells: baculovirus/insect cells
T1 sequence (P11511 1-503): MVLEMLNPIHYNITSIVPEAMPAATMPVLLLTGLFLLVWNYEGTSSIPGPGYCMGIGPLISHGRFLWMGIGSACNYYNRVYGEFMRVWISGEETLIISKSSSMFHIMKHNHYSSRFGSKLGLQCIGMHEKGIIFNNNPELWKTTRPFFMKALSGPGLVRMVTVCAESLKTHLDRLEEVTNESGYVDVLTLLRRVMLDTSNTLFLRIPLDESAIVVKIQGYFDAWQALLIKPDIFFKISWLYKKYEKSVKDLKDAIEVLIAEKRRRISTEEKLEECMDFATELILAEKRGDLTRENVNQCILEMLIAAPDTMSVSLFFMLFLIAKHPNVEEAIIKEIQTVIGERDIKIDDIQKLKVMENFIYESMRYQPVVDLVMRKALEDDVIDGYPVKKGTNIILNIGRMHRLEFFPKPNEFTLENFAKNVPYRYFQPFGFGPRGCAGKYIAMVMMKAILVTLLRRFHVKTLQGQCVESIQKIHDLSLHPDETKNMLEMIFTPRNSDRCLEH
Procedure, shortened: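 Insect-cell-expressed human CYP19 Supersomes with oxidoreductase turned over DBF for 30 min at 37 °C after a 10 min 37 °C pre-incubation with cofactor. NaOH quench; product measured by fluorescence, excitation 490 nm, emission 530 nm.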

DU-145 = experiment: NCI60 five-dose screen; assay type: cell-based; conditions: Homo sapiens, DU-145, prostate cancer; for CC50: read-out: LC50 (the source's name)
SF-539 = experiment: NCI60 five-dose screen; assay type: cell-based; conditions: Homo sapiens, SF-539, CNS cancer; for CC50: read-out: LC50 (the source's name)
MOLT-4 = experiment: NCI60 five-dose screen; assay type: cell-based; conditions: Homo sapiens, MOLT-4, leukemia; for CC50: read-out: LC50 (the source's name)
UACC-257 = experiment: NCI60 five-dose screen; assay type: cell-based; conditions: Homo sapiens, UACC-257, melanoma; for CC50: read-out: LC50 (the source's name)
MALME-3M = experiment: NCI60 five-dose screen; assay type: cell-based; conditions: Homo sapiens, melanoma; for CC50: read-out: LC50 (the source's name)
NCI-H522 = experiment: NCI60 five-dose screen; assay type: cell-based; conditions: Homo sapiens, NCI-H522, NSC lung cancer; for CC50: read-out: LC50 (the source's name)
MCF7 = experiment: NCI60 five-dose screen; assay type: cell-based; conditions: Homo sapiens, MCF7, breast cancer; for CC50: read-out: LC50 (the source's name)
K-562 = experiment: NCI60 five-dose screen; assay type: cell-based; conditions: Homo sapiens, K562, K-562, leukemia; for CC50: read-out: LC50 (the source's name)
NCI-H322M = experiment: NCI60 five-dose screen; assay type: cell-based; conditions: Homo sapiens, NSC lung cancer; for CC50: read-out: LC50 (the source's name)
A549/ATCC = experiment: NCI60 five-dose screen; assay type: cell-based; conditions: Homo sapiens, NSC lung cancer; for CC50: read-out: LC50 (the source's name)
NCI-H460 = experiment: NCI60 five-dose screen; assay type: cell-based; conditions: Homo sapiens, NCI-H460, NSC lung cancer; for CC50: read-out: LC50 (the source's name)
HS 578T = experiment: NCI60 five-dose screen; assay type: cell-based; conditions: Homo sapiens, breast cancer; for CC50: read-out: LC50 (the source's name)
SK-OV-3 = experiment: NCI60 five-dose screen; assay type: cell-based; conditions: Homo sapiens, SK-OV-3, ovarian cancer; for CC50: read-out: LC50 (the source's name)
M14 = experiment: NCI60 five-dose screen; assay type: cell-based; conditions: Homo sapiens, M14, melanoma; for CC50: read-out: LC50 (the source's name)
HCT-15 = experiment: NCI60 five-dose screen; assay type: cell-based; conditions: Homo sapiens, HCT-15, colon cancer; for CC50: read-out: LC50 (the source's name)
KM12 = experiment: NCI60 five-dose screen; assay type: cell-based; conditions: Homo sapiens, KM12, colon cancer; for CC50: read-out: LC50 (the source's name)
OVCAR-8 = experiment: NCI60 five-dose screen; assay type: cell-based; conditions: Homo sapiens, OVCAR-8, ovarian cancer; for CC50: read-out: LC50 (the source's name)
MDA-MB-435 = experiment: NCI60 five-dose screen; assay type: cell-based, human; conditions: Homo sapiens; for CC50: MDA-MB-435, MDA-MB-435, melanoma, read-out: LC50 (the source's name); for GI50: MDA-MB-435, melanoma
EKVX = experiment: NCI60 five-dose screen; assay type: cell-based; conditions: Homo sapiens, NSC lung cancer; for CC50: read-out: LC50 (the source's name)
NCI-H226 = experiment: NCI60 five-dose screen; assay type: cell-based; conditions: Homo sapiens, NCI-H226, NSC lung cancer; for CC50: read-out: LC50 (the source's name)
MDA-MB-231/ATCC = experiment: NCI60 five-dose screen; assay type: cell-based; conditions: Homo sapiens, breast cancer; for CC50: read-out: LC50 (the source's name)
NCI/ADR-RES = experiment: NCI60 five-dose screen; assay type: cell-based, human; conditions: Homo sapiens, ovarian cancer; for CC50: read-out: LC50 (the source's name)
SNB-19 = experiment: NCI60 five-dose screen; assay type: cell-based; conditions: Homo sapiens, SNB-19, CNS cancer; for CC50: read-out: LC50 (the source's name)
OVCAR-4 = experiment: NCI60 five-dose screen; assay type: cell-based; conditions: Homo sapiens, OVCAR-4, ovarian cancer; for CC50: read-out: LC50 (the source's name)
RXF 393 = experiment: NCI60 five-dose screen; assay type: cell-based; conditions: Homo sapiens, RXF 393, renal cancer; for CC50: read-out: LC50 (the source's name)
SW-620 = experiment: NCI60 five-dose screen; assay type: cell-based; conditions: Homo sapiens, SW-620, colon cancer; for CC50: read-out: LC50 (the source's name)

O=C(N/N=C/c1ccc(C(=O)N2CCOCC2)[nH]1)c1[nH]c2ccc(Br)cc2c1-c1ccccc1 [Derivative 3n, (E)-5-Bromo-N′-((5-(morpholine-4-carbonyl)-1H-pyrrol-2-yl)methylene)-3-phenyl-1H-indole-2-carbohydrazide]
IC50 (Human CYP19 (aromatase)): 3.3 ± 0.6 µM | GI50 (DU-145): 3.72 µM | CC50 (DU-145): > 100 µM | GI50 (SF-539): 2.23 µM | CC50 (SF-539): 34.9 µM | GI50 (MOLT-4): 1.5 µM | CC50 (MOLT-4): 20.8 µM | GI50 (UACC-257): 11.9 µM | CC50 (UACC-257): 94.4 µM | GI50 (MALME-3M): 11.7 µM | CC50 (MALME-3M): > 100 µM | GI50 (NCI-H522): 1.6 µM | CC50 (NCI-H522): 58.8 µM | GI50 (MCF7): 2.46 µM | CC50 (MCF7): 77.8 µM | GI50 (K-562): 1.27 µM | CC50 (K-562): 42.7 µM | GI50 (NCI-H322M): 13.9 µM | CC50 (NCI-H322M): > 100 µM | GI50 (A549/ATCC): 3.88 µM | CC50 (A549/ATCC): > 100 µM | GI50 (NCI-H460): 2.49 µM | CC50 (NCI-H460): 54.1 µM | GI50 (HS 578T): 1.04 µM | CC50 (HS 578T): > 100 µM | GI50 (SK-OV-3): 5.68 µM | CC50 (SK-OV-3): > 100 µM | GI50 (M14): 1.92 µM | CC50 (M14): 64.2 µM | GI50 (HCT-15): 2.62 µM | CC50 (HCT-15): > 100 µM | GI50 (KM12): 2.91 µM | CC50 (KM12): 43.6 µM | GI50 (OVCAR-8): 2.86 µM | CC50 (OVCAR-8): 43.1 µM | CC50 (MDA-MB-435): 55.4 µM | GI50 (MDA-MB-435): 0.392 µM | GI50 (EKVX): 7.51 µM | CC50 (EKVX): > 100 µM | GI50 (NCI-H226): 3.39 µM | CC50 (NCI-H226): 81.7 µM | GI50 (MDA-MB-231/ATCC): 4.81 µM | CC50 (MDA-MB-231/ATCC): 83.2 µM | GI50 (NCI/ADR-RES): 1.92 µM | CC50 (NCI/ADR-RES): 84.1 µM | GI50 (SNB-19): 5.66 µM | CC50 (SNB-19): > 100 µM | GI50 (OVCAR-4): 2.93 µM | CC50 (OVCAR-4): > 100 µM | GI50 (RXF 393): 1.06 µM | CC50 (RXF 393): 14.7 µM | GI50 (SW-620): 3.26 µM | CC50 (SW-620): > 100 µM

O=C(N/N=C/c1ccc([N+](=O)[O-])[nH]1)c1[nH]c2ccc(Br)cc2c1-c1ccccc1 [Derivative 3p, (E)-5-Bromo-N′-((5-nitro-1H-pyrrol-2-yl)methylene)-3-phenyl-1H-indole-2-carbohydrazide]
IC50 (Human CYP19 (aromatase)): 1.4 ± 0.3 µM | GI50 (DU-145): 1.84 µM | CC50 (DU-145): 32.5 µM | GI50 (SF-539): 0.389 µM | CC50 (SF-539): 28.1 µM | GI50 (MOLT-4): 0.537 µM | CC50 (MOLT-4): > 100 µM | GI50 (UACC-257): 3.12 µM | CC50 (UACC-257): 48.2 µM | GI50 (MALME-3M): 3.23 µM | CC50 (MALME-3M): 56.2 µM | GI50 (NCI-H522): 0.588 µM | CC50 (NCI-H522): 19.8 µM | GI50 (MCF7): 0.394 µM | CC50 (MCF7): 39 µM | GI50 (K-562): 0.365 µM | CC50 (K-562): > 100 µM | GI50 (NCI-H322M): 11 µM | CC50 (NCI-H322M): 53.3 µM | GI50 (A549/ATCC): 2.23 µM | CC50 (A549/ATCC): 44.9 µM | GI50 (NCI-H460): 0.421 µM | CC50 (NCI-H460): 45.9 µM | GI50 (HS 578T): 0.27 µM | CC50 (HS 578T): 94.3 µM | GI50 (SK-OV-3): 2.95 µM | CC50 (SK-OV-3): 43 µM | GI50 (M14): 0.652 µM | CC50 (M14): 37 µM | GI50 (HCT-15): 0.607 µM | CC50 (HCT-15): 35.7 µM | GI50 (KM12): 1.17 µM | CC50 (KM12): 34.2 µM | GI50 (OVCAR-8): 1.02 µM | CC50 (OVCAR-8): 39 µM | CC50 (MDA-MB-435): 29.8 µM | GI50 (MDA-MB-435): 0.253 µM | GI50 (EKVX): 5.37 µM | CC50 (EKVX): 45.7 µM | GI50 (NCI-H226): 2.43 µM | CC50 (NCI-H226): 46.9 µM | GI50 (MDA-MB-231/ATCC): 2.14 µM | CC50 (MDA-MB-231/ATCC): 46.6 µM | GI50 (NCI/ADR-RES): 0.285 µM | CC50 (NCI/ADR-RES): 16.2 µM | GI50 (SNB-19): 3.34 µM | CC50 (SNB-19): 42.4 µM | GI50 (OVCAR-4): 0.679 µM | CC50 (OVCAR-4): 35.9 µM | GI50 (RXF 393): 0.411 µM | CC50 (RXF 393): 41.2 µM | GI50 (SW-620): 0.249 µM | CC50 (SW-620): 48.4 µM
